# According to patent US11987588B2, “Modulators of the beta-3 adrenergic receptor useful for the treatment or prevention of heart failure and disorders related thereto” (Arena Pharmaceuticals, Inc., priority 2017, dated 2024):
# Target: Beta-3 Adrenergic Receptor (Homo sapiens (Human), UniProt P13945)
# Test: Homogeneous Time-Resolved Fluorescence (HTRF) cAMP antagonist assay, IC50 determination
# Format: cell-based
# Settings: CHO-K1 cells stably expressing recombinant receptor, isoproterenol at EC90
# In short: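 CHO-K1 cells stably expressing receptor, 1500 cells/well, preincubated briefly with 10-point 5-fold compound series (top final typically 10 or 100 μM) in PBS with 1 mM IBMX, then challenged with isoproterenol at EC90 for 1 h at room temperature. cAMP read by HTRF against on-plate standard curve; IC50 from dose-response.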
# Sequence of Beta-3 Adrenergic Receptor (P13945 whole entry, species assumed): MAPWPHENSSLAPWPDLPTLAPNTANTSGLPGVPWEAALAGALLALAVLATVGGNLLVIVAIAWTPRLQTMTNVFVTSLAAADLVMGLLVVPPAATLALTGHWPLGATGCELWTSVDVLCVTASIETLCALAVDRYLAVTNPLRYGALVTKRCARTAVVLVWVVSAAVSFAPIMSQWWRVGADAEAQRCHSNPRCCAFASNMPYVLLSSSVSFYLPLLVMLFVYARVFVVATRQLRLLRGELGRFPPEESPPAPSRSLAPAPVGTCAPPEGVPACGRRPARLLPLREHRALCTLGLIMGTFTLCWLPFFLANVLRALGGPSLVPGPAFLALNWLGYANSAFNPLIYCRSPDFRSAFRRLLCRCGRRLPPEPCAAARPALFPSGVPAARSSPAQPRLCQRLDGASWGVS
row,Structure (SMILES),IC50
1,"CNS(=O)(=O)c1cccc(OC[C@@H](O)CNC2COC3(CCN(S(=O)(=O)c4cccc(-c5cn(C)nc5C(F)(F)F)c4)CC3)C2)c1 (stereo partly drawn) [Compound 62, 3-((2S)-2-hydroxy-3-(8-(3-(1-methyl-3-(trifluoromethyl)-1H-pyrazol-4-yl)phenylsulfonyl)-1-oxa-8-azaspiro[4.5]decan-3-ylamino)propoxy)-N-methylbenzenesulfonamide]",44.9 nM
2,"COCCN(C)S(=O)(=O)c1cccc(OC[C@@H](O)CNC2COC3(CCN(S(=O)(=O)c4ccc5ccccc5c4)CC3)C2)c1 (stereo partly drawn) [Compound 60, 3-((2S)-2-hydroxy-3-(8-(naphthalen-2-ylsulfonyl)-1-oxa-8-azaspiro[4.5]decan-3-ylamino)propoxy)-N-(2-methoxyethyl)-N-methylbenzenesulfonamide]",58.8 nM
3,"CNS(=O)(=O)c1cccc(OC[C@@H](O)CN[C@H]2COC3(CCN(S(=O)(=O)c4cccc(-c5ccc(CNCC(C)C)cc5)c4)CC3)C2)c1 [Compound 363, 3-((S)-2-hydroxy-3-((R)-8-(4′-((isobutylamino)methyl)biphenyl-3-ylsulfonyl)-1-oxa-8-azaspiro[4.5]decan-3-ylamino)propoxy)-N-methylbenzenesulfonamide]",123 nM
4,"CN(C)S(=O)(=O)c1cccc(OC[C@@H](O)CNC2COC3(CCN(S(=O)(=O)c4cccc(-c5ccc(CC#N)cc5)c4)CC3)C2)c1 (stereo partly drawn) [Compound 277, 3-((2S)-3-(8-(4′-(cyanomethyl)biphenyl-3-ylsulfonyl)-1-oxa-8-azaspiro[4.5]decan-3-ylamino)-2-hydroxypropoxy)-N,N-dimethylbenzenesulfonamide]",46.7 nM
5,"CNS(=O)(=O)c1cccc(OC[C@@H](O)CN[C@H]2COC3(CCN(S(=O)(=O)c4cc5c(nc4N)OCCN5C)CC3)C2)c1 [Compound 455, 3-((S)-3-((R)-8-(6-amino-1-methyl-2,3-dihydro-1H-pyrido[2,3-b][1,4]oxazin-7-ylsulfonyl)-1-oxa-8-azaspiro[4.5]decan-3-ylamino)-2-hydroxypropoxy)-N-methylbenzenesulfonamide]",25.1 nM
6,"O=S(=O)(NC1(CO)CC1)c1cccc(OC[C@@H](O)CNC2COC3(CCN(S(=O)(=O)c4ccc5ccccc5c4)CC3)C2)c1 (stereo partly drawn) [Compound 99, 3-((2S)-2-hydroxy-3-(8-(naphthalen-2-ylsulfonyl)-1-oxa-8-azaspiro[4.5]decan-3-ylamino)propoxy)-N-(1-(hydroxymethyl)cyclopropyl)benzenesulfonamide]",121 nM
7,"Cc1ccc2c(O)c(S(=O)(=O)N3CCC4(CC3)C[C@@H](NC[C@H](O)COc3cccc(S(N)(=O)=O)c3)CO4)cnc2c1 [Compound 542, 3-((S)-2-hydroxy-3-((R)-8-(4-hydroxy-7-methylquinolin-3-ylsulfonyl)-1-oxa-8-azaspiro[4.5]decan-3-ylamino)propoxy)benzenesulfonamide]",15.6 nM
8,"CNS(=O)(=O)c1cccc(OC[C@@H](O)CNC2COC3(CCN(S(=O)(=O)c4cccc(-c5ccc(CN)nc5)c4)CC3)C2)c1 (stereo partly drawn) [Compound 387, 3-((2S)-3-(8-(3-(6-(aminomethyl)pyridin-3-yl)phenylsulfonyl)-1-oxa-8-azaspiro[4.5]decan-3-ylamino)-2-hydroxypropoxy)-N-methylbenzenesulfonamide]",30.8 nM
9,"CNS(=O)(=O)c1cccc(OC[C@@H](O)CNC2COC3(CCN(S(=O)(=O)c4ccc5cc(Cl)ccc5c4)CC3)C2)c1 (stereo partly drawn) [Compound 264, 3-((2S)-3-(8-(6-chloronaphthalen-2-ylsulfonyl)-1-oxa-8-azaspiro[4.5]decan-3-ylamino)-2-hydroxypropoxy)-N-methylbenzenesulfonamide]",39 nM
10,"CCNS(=O)(=O)c1cccc(OC[C@@H](O)CNC2COC3(CCN(S(=O)(=O)c4cccc(-c5ccc(CN)cc5)c4)CC3)C2)c1 (stereo partly drawn) [Compound 210, 3-((2S)-3-(8-(4′-(aminomethyl)biphenyl-3-ylsulfonyl)-1-oxa-8-azaspiro[4.5]decan-3-ylamino)-2-hydroxypropoxy)-N-ethylbenzenesulfonamide]",20.4 nM
11,"CNS(=O)(=O)c1cccc(OC[C@@H](O)CNC2COC3(CCN(S(=O)(=O)c4cccc(-c5ccc(OCCCN(C)C)nc5)c4)CC3)C2)c1 (stereo partly drawn) [Compound 372, 3-((2S)-3-(8-(3-(6-(3-(dimethylamino)propoxy)pyridin-3-yl)phenylsulfonyl)-1-oxa-8-azaspiro[4.5]decan-3-ylamino)-2-hydroxypropoxy)-N-methylbenzenesulfonamide]",41.8 nM
12,"CN1CCOc2ncc(S(=O)(=O)N3CCC4(CC3)C[C@@H](NC[C@H](O)COc3cccc(S(N)(=O)=O)c3)CO4)cc21 [Compound 458, 3-((S)-2-hydroxy-3-((R)-8-(1-methyl-2,3-dihydro-1H-pyrido[2,3-b][1,4]oxazin-7-ylsulfonyl)-1-oxa-8-azaspiro[4.5]decan-3-ylamino)propoxy)benzenesulfonamide]",45.7 nM
13,"CNS(=O)(=O)c1cccc(OC[C@@H](O)CNC2COC3(CCN(S(=O)(=O)c4cccc(-c5cscc5C)c4)CC3)C2)c1 (stereo partly drawn) [Compound 109, 3-((2S)-2-hydroxy-3-(8-(3-(4-methylthiophen-3-yl)phenylsulfonyl)-1-oxa-8-azaspiro[4.5]decan-3-ylamino)propoxy)-N-methylbenzenesulfonamide]",13.7 nM
14,"CCC(C)c1ccc(S(=O)(=O)N2CCC3(CC2)CC(NC[C@H](O)COc2cccc(S(=O)(=O)NC)c2)CO3)cc1 (stereo partly drawn) [Compound 22, 3-((2S)-3-(8-(4-sec-butylphenylsulfonyl)-1-oxa-8-azaspiro[4.5]decan-3-ylamino)-2-hydroxypropoxy)-N-methylbenzenesulfonamide]",15 nM
15,"CNCc1ccc(-c2cccc(S(=O)(=O)N3CCC4(CC3)CC(NC[C@H](O)COc3cccc(S(=O)(=O)NC)c3)CO4)c2)cc1 (stereo partly drawn) [Compound 301, 3-((2S)-2-hydroxy-3-(8-(4′-((methylamino)methyl)biphenyl-3-ylsulfonyl)-1-oxa-8-azaspiro[4.5]decan-3-ylamino)propoxy)-N-methylbenzenesulfonamide]",31.6 nM
16,"CNS(=O)(=O)c1cccc(OC[C@@H](O)CN[C@H]2COC3(CCN(S(=O)(=O)c4cc5nc[nH]c5nc4C)CC3)C2)c1 [Compound 516, 3-((S)-2-hydroxy-3-((R)-8-(5-methyl-3H-imidazo[4,5-b]pyridin-6-ylsulfonyl)-1-oxa-8-azaspiro[4.5]decan-3-ylamino)propoxy)-N-methylbenzenesulfonamide]",166 nM
17,"O=S(=O)(NCC1CCCNC1)c1cccc(OC[C@@H](O)CNC2COC3(CCN(S(=O)(=O)c4ccc5ccccc5c4)CC3)C2)c1 (stereo partly drawn) [Compound 168, 3-((2S)-2-hydroxy-3-(8-(naphthalen-2-ylsulfonyl)-1-oxa-8-azaspiro[4.5]decan-3-ylamino)propoxy)-N-(piperidin-3-ylmethyl)benzenesulfonamide]",1470 nM

# Now from value to compound:
row,IC50,Structure (SMILES)
1,32.1 nM,"CNS(=O)(=O)c1cccc(OC[C@@H](O)CN[C@H]2COC3(CCN(S(=O)(=O)c4cnc5c(c4)CCCC5)CC3)C2)c1 [Compound 479, 3-((S)-2-hydroxy-3-((R)-8-(5,6,7,8-tetrahydroquinolin-3-ylsulfonyl)-1-oxa-8-azaspiro[4.5]decan-3-ylamino)propoxy)-N-methylbenzenesulfonamide]"
2,7.74 nM,"CNS(=O)(=O)c1cccc(OC[C@@H](O)CN[C@H]2COC3(CCN(S(=O)(=O)c4cnc5[nH]c(C)c(Cl)c5c4)CC3)C2)c1 [Compound 517, 3-((S)-3-((R)-8-(3-chloro-2-methyl-1H-pyrrolo[2,3-b]pyridin-5-ylsulfonyl)-1-oxa-8-azaspiro[4.5]decan-3-ylamino)-2-hydroxypropoxy)-N-methylbenzenesulfonamide]"
3,44.2 nM,"CNS(=O)(=O)c1cccc(OC[C@@H](O)CN[C@H]2COC3(CCN(S(=O)(=O)c4cnc5c(c4)N(C)CC4(CC4)O5)CC3)C2)c1 [Compound 474, 3-((S)-2-hydroxy-3-((R)-8-(1′-methyl-1′,2′-dihydrospiro[cyclopropane-1,3′-pyrido[2,3-b][1,4]oxazine]-7′-ylsulfonyl)-1-oxa-8-azaspiro[4.5]decan-3-ylamino)propoxy)-N-methylbenzenesulfonamide]"
4,10 nM,"CNS(=O)(=O)c1cccc(OC[C@@H](O)CNC2COC3(CCN(S(=O)(=O)c4ccc(C)c(C)c4)CC3)C2)c1 (stereo partly drawn) [Compound 19, 3-((2S)-3-(8-(3,4-dimethylphenylsulfonyl)-1-oxa-8-azaspiro[4.5]decan-3-ylamino)-2-hydroxypropoxy)-N-methylbenzenesulfonamide]"
5,37.9 nM,"CNS(=O)(=O)c1cccc(OC[C@@H](O)CNC2COC3(CCN(S(=O)(=O)c4ccc(F)cc4F)CC3)C2)c1 (stereo partly drawn) [Compound 134, 3-((2S)-3-(8-(2,4-difluorophenylsulfonyl)-1-oxa-8-azaspiro[4.5]decan-3-ylamino)-2-hydroxypropoxy)-N-methylbenzenesulfonamide]"
6,42.6 nM,"CNS(=O)(=O)c1cccc(OC[C@@H](O)CNC2COC3(CCN(S(=O)(=O)c4cncc(-c5cnn(C)c5)c4)CC3)C2)c1 (stereo partly drawn) [Compound 342, 3-((2S)-2-hydroxy-3-(8-(5-(1-methyl-1H-pyrazol-4-yl)pyridin-3-ylsulfonyl)-1-oxa-8-azaspiro[4.5]decan-3-ylamino)propoxy)-N-methylbenzenesulfonamide]"
7,23.4 nM,"CNS(=O)(=O)c1cccc(OC[C@@H](O)CNC2COC3(CCN(S(=O)(=O)c4ccc(OC)c(F)c4)CC3)C2)c1 (stereo partly drawn) [Compound 195, 3-((2S)-3-(8-(3-fluoro-4-methoxyphenylsulfonyl)-1-oxa-8-azaspiro[4.5]decan-3-ylamino)-2-hydroxypropoxy)-N-methylbenzenesulfonamide]"
8,20.4 nM,"CCn1cnc2cc(S(=O)(=O)N3CCC4(CC3)C[C@@H](NC[C@H](O)COc3cccc(S(=O)(=O)NC)c3)CO4)cnc21 [Compound 511, 3-((S)-3-((R)-8-(3-ethyl-3H-imidazo[4,5-b]pyridin-6-ylsulfonyl)-1-oxa-8-azaspiro[4.5]decan-3-ylamino)-2-hydroxypropoxy)-N-methylbenzenesulfonamide]"
